Experimental data: US5565475A, “Method of treating urinary bladder dysfunctions with 3-tetrahydropyridine derivatives” (priority 1994, dated 1996)
Where a name gives a salt, the structure may show the parent alone.

Legend:
[1] = test system: vesico-anal reflex; assay: Acetic acid-induced vesico-anal reflex (model of visceral nociception); format: in vivo, rat (female Sprague-Dawley); conditions: for duration of the increase in vesico-anal reflex activity / increases in vesico-anal reflex activity when administered alone: atropine 30 μg/kg-1 mg/kg, oxybutynin 1-3 mg/kg, administered alone
Text: The model of visceral nociception that was used in the testing of the compounds according to the method of this invention is the acetic acid-induced vesico-anal reflex. This model utilizes infusion of a dilute acetic acid solution into the urinary bladder as a nociceptive stimulus and records increases in electromyographic (EMG) activity from the anal sphincter as the primary measured response. Anal sphincter EMG activity is composed of 2 components, 1) a small, long duration action potential (ca. 50 msec) that is sensitive to muscarinic antagonists and 2) a larger, short duration action potential (ca. 2 msec) that is sensitive to neuromuscular blocking agents (i.e. mediated by nicotinic receptors). These components represent rectal longitudinal smooth muscle activity and external anal sphincter striated muscle activity, respectively, and have been described in detail in a separate publication (Muhlhauser reference). It is the striated anal sphincter muscle activity that 1) is associated with bladder activity, 2) is increased by acetic acid infusion into the bladder, and 3) represents the vesico-anal reflex. The acetic acid-inducedincrease in vesico-anal reflex activity is maintained for over 2 hours in 95% of the animals.
In the acetic acid-induced vesico-anal reflex model, bladders of urethane-anesthetized rats were cannulated through the dome for continuous-infusion cystometrogram recordings. EMG electrodes were inserted into the anus and the peri-urethral musculature for recording anal and urethral sphincteric activity, respectively. Infusion of 0.5% acetic acid into the bladder or urethra produced modest increases in bladder contractile activity and urethral sphincter activity and pronounced increases in anal sphincter activity (i.e. an increase in the vesico-anal reflex). […] These studies indicate that a tonically-active, endogenous, cholinergic muscarinic system plays a role in the suppression of visceral nociception arising from the lower urinary tract.
Female Sprague-Dawley rats (200-300 g) were anesthetized with 1.4 g/kg urethane (0.7 g administered i.p. and 0.7 g administered s.c.), which was supplemented with 1% isoflurane during surgery. The urinary bladder was exposed through an abdominal incision and cannulated with PE60 tubing attached to a 22 gauge needle that was inserted through the dome of the bladder. A purse-string suture (5-0 silk) through the bladder held the needle in place. The cannula was connected to an infusion pump (Harvard Apparatus, ratus, Natick Mass.) and a pressure transducer (Statham Gould, Cleveland, Ohio) through a 3 way stopcock to allow bladder filling and pressure measurement, respectively. The abdominal incision was covered with plastic wrap. A small incision was made in the perineum to allow placement of EMG electrodes into the periurethral musculature. EMG electrodes were also placed into the muscular tissue of the anus. EMG electrodes were connected to preamplifiers (Grass P511, Quincey, Mass.) with low and high pass filters set at 10 and 3000 HZ. […] A catheter inserted into the carotid artery was connected to a pressure transducer (Statham Gould, Cleveland, Ohio) to record arterial pressure, which was used to trigger a heart rate meter (Biotach, Gould, Cleveland, Ohio). A catheter was inserted into the trachea to allow for artificial respiration and monitoring of expired CO2 (Sensor Medics, Anaheim, Calif.). EMG potentials, rate meter output, bladder and arterial pressure, heart rate, and expired CO2 measurements were recorded on a physiograph (Gould, TA4000, Cleveland, Ohio) and stored on an 8-channel digital audio tape recorder (SONY PC-108M, Tokyo, Japan).
After establishing control levels of anal and urethral activity, compounds were administered intravenously. […]

[2] = molecular target: muscarinic receptors; assay: Inhibition of 3H-oxotremorine-M binding to muscarinic receptors (rat cerebral cortical membranes); parameters: species or system rat (male Sprague-Dawley); conditions: 3 nM 3H-oxotremorine-M, pH 7.4, 15 minutes at 25° C., read-out: Inhibition of 3H-Oxo
Procedure: The affinity of the compounds for the muscarinic receptors was determined using the non-selective agonist ligand, ^3 H-oxotremorine-M. Birdsdall N. J. M., Hulme E. C., and Burgen A. S. V., "The Character of Muscarinic Receptors in Different Regions of the Rat Brain", 207 Proc. Roy. Soc. 1 (London, Series B, 1980). Each compound was tested to determine the affinity of the compound for the muscarinic receptors using the following procedure.
For in vitro binding, male Sprague-Dawley (Harlan Sprague-Dawley, Indianapolis, IN) rats weighing from about 100 to about 150 grams each were sacrificed by decapitation. The brains were quickly removed and the cerebral cortex were dissected from the brain. The cerebral cortex tissue was homogenized in 10 volumes of 0.32M sucrose and homogenized for about 10 minutes at about 1000×g. The supernatant was centrifuged at about 12,000×g for about 10 minutes and the resulting pellet was resuspended in 20 mM tris-Cl, pH 7.4. The resuspended pellet was centrifuged again for about 10 minutes at about 50,000×g. The resulting homogenate was preincubated for about 10 minutes at about 25° C. and centrifuged again for about 10 minutes at about 50,000×g. The pellet was resuspended at 1 gram of pellet per 3 ml of buffer and frozen at about -80° C. until used.
The aforementioned homogenates mixture was incubated for about 15 minutes at about 25° C. and then the homogenates were filtered through glass filters (Whatman, GF/C) with vacuum. The filters were washed 3 times with about 2 ml of cold tris-Cl buffer, and placed in scintillation vials containing about 10 ml of scintillation fluid (Ready Protein+, Beckman, Fullerton, Calif.). Radioactivity trapped on the filters was determined by liquid scintillation spectrometry. Nonspecific binding was determined using 1 μM atropine.

Structure (SMILES): O=C1CCCN1CC#CCN1CCCC1 [Oxotremorine]
- reversal of the inhibition of vesico-anal reflex activity by atropine ([1]; atropine 0.3-1 mg/kg): reversed by atropine
- vesico-anal reflex activity (inhibited to % of control) ([1]; oxotremorine 1-30 μg/kg iv, test compounds 0.01-1.0 mg/kg iv): 10 % of control
- inhibition of vesico-anal reflex activity ([1]; oxotremorine 1-30 μg/kg iv, test compounds 0.01-1.0 mg/kg iv, urethane-anesthetized rats, 0.5% acetic acid): dose-dependent inhibition of vesico-anal reflex activity

Structure (SMILES): CCCOc1nsnc1C1=CCCN(C)C1 [Compound 3, 1,2,5,6-Tetrahydro-1-methyl-3-(3-propoxy-1,2,5-thiadiazol-4-yl)pyridine oxalate]
- IC50 [2]: 1.6 nM

Structure (SMILES): CNC(=O)Oc1ccc2c(c1)[C@]1(C)CCN(C)[C@@H]1N2C [physostigmine]
- suppression of the VA reflex by cholinesterase inhibitors ([1]; rat, in vivo): suppressed the VA reflex in a dose-dependent, atropine-sensitive manner

Structure (SMILES): CCCSc1nsnc1C1=CCCN(C)C1 [Compound 47, 3-(3-Propylthio-1,2,5-thiadiazol-4-yl)-1,2,5,6-tetrahydro-1-methylpyridine oxalate]
- IC50 [2]: 0.9 nM

Structure (SMILES): CCN(CC)CC#CCOC(=O)C(O)(c1ccccc1)C1CCCCC1 (stereo not drawn) [oxybutynin]
- duration of the increase in vesico-anal reflex activity [1]: 15 min
- increases in vesico-anal reflex activity when administered alone [1]: robust, but transient

Structure (SMILES): C=CCCCCOc1nsnc1C1=CCCN(C)C1 [Compound 33, 3-(3-(5-Hexenyloxy)-1,2,5-thiadiazol-4-yl)-1,2,5,6-tetrahydro-1-methylpyridine oxalate]
- IC50 [2]: 2.7 nM

Structure (SMILES): COc1nsnc1C1=CCCN(C)C1 [Compound 1, 1,2,5,6-Tetrahydro-3-(3-methoxy-1,2,5-thiadiazol-4-yl)-1-methylpyridine oxalate]
- IC50 [2]: 22 nM

Structure (SMILES): CCCCOc1nsnc1C1=CCCN(C)C1 [Compound 4, 3-(3-Butoxy-1,2,5-thiadiazol-4-yl)-1,2,5,6-tetrahydro-1-methylpyridine oxalate]
- IC50 [2]: 2 nM

Structure (SMILES): C[N+]1(C)[C@@H]2C[C@@H](OC(=O)[C@H](CO)c3ccccc3)C[C@H]1[C@@H]1O[C@@H]12 [Scopolamine methyl bromide]
- blocking of the cholinergic agonist-mediated inhibition of the vesico-anal reflex ([1]; 1-30 ug/kg): ineffective at blocking the cholinergic agonist-mediated inhibition of the vesico-anal reflex

Structure (SMILES): CCOc1nsnc1C1=CCCN(C)C1 [Compound 2, 3-(3-Ethoxy-1,2,5-thiadiazol-4-yl)-1,2,5,6-tetrahydro-1-methylpyridine oxalate]
- IC50 [2]: 5.7 nM

Structure (SMILES): CN1[C@@H]2CC[C@H]1C[C@@H](OC(=O)C(CO)c1ccccc1)C2 (stereo partly drawn) [atropine]
- duration of the increase in vesico-anal reflex activity [1]: 15 min
- increases in vesico-anal reflex activity when administered alone [1]: robust, but transient
